Source: article PMC7791078 (Molecular Therapy, 2020)

How the values were obtained:
minke whale NIS (wNIS) = target: T1, minke whale NIS (wNIS) (Balaenoptera acutorostrata, UniProt A0A384B8D1); experiment: inhibition of […]mTcO4 uptake in transduced HeLa cells; type: cell-based
T1 sequence (A0A384B8D1 1-642): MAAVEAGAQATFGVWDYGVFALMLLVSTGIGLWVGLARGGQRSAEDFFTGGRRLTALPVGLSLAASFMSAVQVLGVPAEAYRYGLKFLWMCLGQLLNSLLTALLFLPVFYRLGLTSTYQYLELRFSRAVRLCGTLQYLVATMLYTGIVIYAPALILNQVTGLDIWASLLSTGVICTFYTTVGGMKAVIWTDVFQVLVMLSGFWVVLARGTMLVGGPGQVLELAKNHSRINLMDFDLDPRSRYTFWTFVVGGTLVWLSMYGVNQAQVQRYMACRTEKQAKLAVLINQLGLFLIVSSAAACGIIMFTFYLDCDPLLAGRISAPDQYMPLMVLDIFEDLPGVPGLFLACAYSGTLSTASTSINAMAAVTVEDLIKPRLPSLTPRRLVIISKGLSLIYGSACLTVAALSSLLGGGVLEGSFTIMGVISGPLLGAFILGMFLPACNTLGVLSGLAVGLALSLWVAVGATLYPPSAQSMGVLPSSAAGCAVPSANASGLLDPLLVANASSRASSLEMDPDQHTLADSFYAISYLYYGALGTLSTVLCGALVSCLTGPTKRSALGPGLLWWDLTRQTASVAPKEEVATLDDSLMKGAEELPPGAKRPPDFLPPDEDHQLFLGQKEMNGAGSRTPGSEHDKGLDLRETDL

human NIS (hNIS) = target: T2, human NIS (hNIS) (Homo sapiens, UniProt Q92911); experiment: as above; type: cell-based
T2 sequence (Q92911 1-643): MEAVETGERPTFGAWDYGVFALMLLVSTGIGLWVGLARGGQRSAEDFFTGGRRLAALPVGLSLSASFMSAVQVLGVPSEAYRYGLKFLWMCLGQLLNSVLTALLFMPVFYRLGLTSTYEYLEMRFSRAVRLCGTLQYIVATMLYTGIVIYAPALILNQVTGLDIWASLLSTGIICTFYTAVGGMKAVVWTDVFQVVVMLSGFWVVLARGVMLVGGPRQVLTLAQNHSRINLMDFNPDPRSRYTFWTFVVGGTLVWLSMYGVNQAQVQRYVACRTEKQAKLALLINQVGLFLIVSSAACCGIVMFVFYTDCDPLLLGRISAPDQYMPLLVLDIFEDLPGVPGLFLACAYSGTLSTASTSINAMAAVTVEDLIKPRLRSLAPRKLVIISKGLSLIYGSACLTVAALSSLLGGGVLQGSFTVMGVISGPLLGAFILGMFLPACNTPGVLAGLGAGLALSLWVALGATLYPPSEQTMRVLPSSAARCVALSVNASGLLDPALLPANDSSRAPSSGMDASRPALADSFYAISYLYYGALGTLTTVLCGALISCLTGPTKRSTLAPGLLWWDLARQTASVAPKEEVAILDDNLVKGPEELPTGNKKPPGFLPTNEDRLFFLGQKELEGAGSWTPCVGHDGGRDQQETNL

`[O-][Cl+3]([O-])([O-])O` [perchlorate] was tested, and the IC50 (minke whale NIS (wNIS)) was 2.86 µM and the IC50 (human NIS (hNIS)) was 0.195 µM.
